Data from PMC6547622 (ACS Omega, 2019).

Tests used:
Format in all cases: biochemical
[1] = molecular target: T1, αPMM/PGM from P. aeruginosa (Pseudomonas aeruginosa, UniProt P26276); test: IC50 determination of αPMM/PGM
T1 sequence (P26276 1-463): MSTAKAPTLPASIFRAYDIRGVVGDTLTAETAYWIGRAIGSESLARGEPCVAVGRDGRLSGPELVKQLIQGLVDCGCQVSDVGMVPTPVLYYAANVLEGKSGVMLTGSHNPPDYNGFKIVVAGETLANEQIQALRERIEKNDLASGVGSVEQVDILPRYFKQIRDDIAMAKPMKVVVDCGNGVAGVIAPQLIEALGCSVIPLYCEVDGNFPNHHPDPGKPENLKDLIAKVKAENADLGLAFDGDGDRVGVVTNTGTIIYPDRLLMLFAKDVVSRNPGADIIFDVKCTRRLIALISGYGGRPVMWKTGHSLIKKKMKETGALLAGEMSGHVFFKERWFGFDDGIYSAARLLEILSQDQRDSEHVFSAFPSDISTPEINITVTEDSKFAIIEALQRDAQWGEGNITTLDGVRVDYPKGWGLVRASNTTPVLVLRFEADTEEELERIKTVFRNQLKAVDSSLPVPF

βPGM from L. lactis = βPGM from L. lactis (Lactococcus lactis subsp. lactis, UniProt P71447); test: IC50 determination of βPGM
αPMM/PGM = molecular target: T2, αPMM/PGM (Pseudomonas aeruginosa, UniProt P26276); test: Michaelis Menten kinetics of αPMM/PGM; details: read-out: Km(αG1P), variable αG1P 0–200 µM
T2 sequence (P26276 1-463): T1 sequence (P26276 1-463)

Question: What does the source list for `O=P(O)(O)OC[C@H]1O[C@@](O)(CF)[C@H](O)[C@@H](O)[C@@H]1O` [compound 2, 1-Deoxy-1-monofluoro-α-D-gluco-heptulose 7-Phosphate]?
Answer: IC50 [1]: 234 ± 29 µM; Ki [1]: 117 ± 14 µM; IC50 (βPGM from L. lactis): 183 ± 14 µM; Ki (βPGM from L. lactis): 92 ± 7 µM

Question: `O=P(O)(O)O[C@H]1O[C@H](CO)[C@@H](O)[C@H](O)[C@H]1O` [αG1P, glucose 1-phosphate] was tested. Which Km (αPMM/PGM) did it give?
Answer: 20 µM

Question: For `C[C@]1(O)O[C@H](COP(=O)(O)O)[C@@H](O)[C@H](O)[C@H]1O` [compound 1, 1-Deoxy-α-D-gluco-heptulose 7-Phosphate], which IC50 [1] is on record?
Answer: 131 ± 1 µM

Question: What about the Ki [1] of the same compound?
Answer: 65 ± 0.5 µM

Question: And the IC50 (βPGM from L. lactis)?
Answer: 113 ± 3 µM

Question: What about the Ki (βPGM from L. lactis) of the same compound?
Answer: 57 ± 2 µM

Question: For `O=P(O)(O)OC[C@H]1O[C@@](O)(C(F)F)[C@H](O)[C@@H](O)[C@@H]1O` [compound 3, 1-Deoxy-1,1-difluoro-α-D-gluco-heptulose 7-Phosphate], which IC50 [1] is on record?
Answer: 288 ± 37 µM

Question: And the Ki [1]?
Answer: 144 ± 18 µM

Question: What about the IC50 (βPGM from L. lactis) of the same compound?
Answer: 214 ± 11 µM

Question: What about the Ki (βPGM from L. lactis) of the same compound?
Answer: 107 ± 6 µM
